According to US20230074545A1, “TREATMENT OF CANCER WITH CDK12/13 INHIBITORS” (Kinnate Biopharma Inc., priority 2019, published 2023):

Experiments:
Assay in all cases: Radiometric kinase panel
Assay type in all cases: biochemical
SYK = target: T1, SYK (Homo sapiens, UniProt P43405)
T1 construct: either as full-length or enzymatically active fragments; purchased ProQinase GmbH (Reaction Biology)
Summary of the method: (§1)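 Activity was measured radiometrically from [gamma-33P]-ATP incorporation into substrate. The kinases were recombinant human GST- or His-tagged proteins, full-length or active fragments, expressed in Sf9 or E. coli. Compound in 10% DMSO was added before the enzyme/substrate mix, which started the reaction.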

NEK1 = target: T2, NEK1 (Homo sapiens, UniProt Q96PY6)
T2 construct: purchased ProQinase GmbH (Reaction Biology)
Summary of the method: as §1

CDK9/CycK = target: T3, CDK9/CycK (Homo sapiens, UniProt P50750)
T3 construct: either as full-length or enzymatically active fragments; purchased ProQinase GmbH (Reaction Biology)
Summary of the method: as §1

HIPK4 = target: T4, HIPK4 (Homo sapiens, UniProt Q8NE63)
T4 construct: either as full-length or enzymatically active fragments; purchased ProQinase GmbH (Reaction Biology); host or cells: Sf9 insect cells or E. coli
T4 sequence (Q8NE63 whole entry, the tested form may be a part): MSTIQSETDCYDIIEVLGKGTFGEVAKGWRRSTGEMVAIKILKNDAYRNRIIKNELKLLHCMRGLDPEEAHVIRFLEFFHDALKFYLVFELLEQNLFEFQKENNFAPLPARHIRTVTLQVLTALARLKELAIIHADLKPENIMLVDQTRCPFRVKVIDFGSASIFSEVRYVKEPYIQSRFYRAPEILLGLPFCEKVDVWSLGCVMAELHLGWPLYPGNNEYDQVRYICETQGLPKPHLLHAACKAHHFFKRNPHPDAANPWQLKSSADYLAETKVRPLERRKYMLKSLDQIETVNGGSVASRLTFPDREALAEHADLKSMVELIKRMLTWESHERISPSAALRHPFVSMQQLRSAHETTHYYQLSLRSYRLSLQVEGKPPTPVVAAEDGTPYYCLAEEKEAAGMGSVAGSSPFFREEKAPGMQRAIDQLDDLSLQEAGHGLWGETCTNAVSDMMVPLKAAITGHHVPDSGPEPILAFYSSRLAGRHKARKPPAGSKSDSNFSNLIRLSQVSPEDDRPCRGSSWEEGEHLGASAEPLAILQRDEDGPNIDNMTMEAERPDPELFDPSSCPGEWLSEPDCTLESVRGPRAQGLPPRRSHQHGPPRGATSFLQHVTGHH
Summary of the method: as §1

CDC42BPB = target: T5, CDC42BPB (Homo sapiens, UniProt Q9Y5S2)
T5 construct: either as full-length or enzymatically active fragments; purchased ProQinase GmbH (Reaction Biology)
Summary of the method: as §1

CLK2 = target: T6, CLK2 (Homo sapiens, UniProt P49760)
T6 construct: purchased ProQinase GmbH (Reaction Biology)
T6 sequence (P49760 whole entry): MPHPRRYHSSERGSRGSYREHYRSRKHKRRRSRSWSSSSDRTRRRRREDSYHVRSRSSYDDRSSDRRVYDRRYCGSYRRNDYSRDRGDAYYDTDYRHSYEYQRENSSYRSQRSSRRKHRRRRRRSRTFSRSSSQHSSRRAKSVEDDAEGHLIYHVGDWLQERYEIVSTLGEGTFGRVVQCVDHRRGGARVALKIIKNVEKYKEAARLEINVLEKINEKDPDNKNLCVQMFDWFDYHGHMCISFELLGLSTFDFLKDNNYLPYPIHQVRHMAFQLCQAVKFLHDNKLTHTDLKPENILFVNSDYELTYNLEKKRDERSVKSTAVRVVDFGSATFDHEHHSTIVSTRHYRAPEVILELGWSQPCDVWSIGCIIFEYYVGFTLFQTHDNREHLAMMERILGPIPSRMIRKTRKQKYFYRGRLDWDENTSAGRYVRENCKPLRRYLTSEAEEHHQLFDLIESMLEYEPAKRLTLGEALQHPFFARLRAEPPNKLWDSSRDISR
Summary of the method: as §1

IRAK4 = target: T7, IRAK4 (Homo sapiens, UniProt Q9NWZ3)
T7 construct: purchased ProQinase GmbH (Reaction Biology)
T7 sequence (Q9NWZ3 whole entry): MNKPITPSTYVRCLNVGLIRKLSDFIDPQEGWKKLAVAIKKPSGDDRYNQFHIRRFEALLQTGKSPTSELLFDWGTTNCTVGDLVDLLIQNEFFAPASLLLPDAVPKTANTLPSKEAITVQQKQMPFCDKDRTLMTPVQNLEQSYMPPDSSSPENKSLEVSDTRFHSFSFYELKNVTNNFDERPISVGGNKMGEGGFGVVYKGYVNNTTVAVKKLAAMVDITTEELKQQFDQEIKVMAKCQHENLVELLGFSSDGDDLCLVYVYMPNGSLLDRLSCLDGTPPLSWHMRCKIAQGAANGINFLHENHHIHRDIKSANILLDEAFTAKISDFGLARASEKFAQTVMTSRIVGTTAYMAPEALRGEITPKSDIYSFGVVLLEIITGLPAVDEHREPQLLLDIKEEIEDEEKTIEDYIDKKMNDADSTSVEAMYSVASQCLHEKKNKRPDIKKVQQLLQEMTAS
Summary of the method: as §1

CAMKK1 = target: T8, CAMKK1 (Homo sapiens, UniProt Q8N5S9)
T8 construct: either as full-length or enzymatically active fragments; purchased ProQinase GmbH (Reaction Biology)
T8 sequence (Q8N5S9 whole entry, the tested form may be a part): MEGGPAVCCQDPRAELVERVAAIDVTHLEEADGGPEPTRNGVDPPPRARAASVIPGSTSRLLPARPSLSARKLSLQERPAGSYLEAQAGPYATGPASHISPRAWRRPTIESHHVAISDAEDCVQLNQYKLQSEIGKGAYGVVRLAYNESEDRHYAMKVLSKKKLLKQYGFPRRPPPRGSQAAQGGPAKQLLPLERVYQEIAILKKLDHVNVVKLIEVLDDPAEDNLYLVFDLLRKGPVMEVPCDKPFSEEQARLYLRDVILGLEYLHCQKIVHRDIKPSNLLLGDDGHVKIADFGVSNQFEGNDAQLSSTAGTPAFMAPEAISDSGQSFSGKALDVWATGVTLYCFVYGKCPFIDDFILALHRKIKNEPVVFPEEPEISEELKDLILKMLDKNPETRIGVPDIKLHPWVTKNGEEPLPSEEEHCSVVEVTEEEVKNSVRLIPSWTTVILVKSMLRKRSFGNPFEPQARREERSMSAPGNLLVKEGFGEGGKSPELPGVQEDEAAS
Summary of the method: as §1

CDK4/CycD2 = target: T9, CDK4/CycD2 (Homo sapiens, UniProt P11802)
T9 construct: purchased ProQinase GmbH (Reaction Biology)
T9 sequence (P11802 whole entry): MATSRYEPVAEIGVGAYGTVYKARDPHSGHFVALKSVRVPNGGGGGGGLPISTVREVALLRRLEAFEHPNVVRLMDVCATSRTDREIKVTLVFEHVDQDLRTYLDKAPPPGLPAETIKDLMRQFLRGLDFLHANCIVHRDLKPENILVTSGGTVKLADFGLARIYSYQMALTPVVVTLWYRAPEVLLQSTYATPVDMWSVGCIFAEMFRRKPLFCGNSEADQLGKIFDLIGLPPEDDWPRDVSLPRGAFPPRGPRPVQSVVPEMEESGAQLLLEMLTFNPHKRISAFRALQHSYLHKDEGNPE
T9 sequence (P30279 whole entry partner): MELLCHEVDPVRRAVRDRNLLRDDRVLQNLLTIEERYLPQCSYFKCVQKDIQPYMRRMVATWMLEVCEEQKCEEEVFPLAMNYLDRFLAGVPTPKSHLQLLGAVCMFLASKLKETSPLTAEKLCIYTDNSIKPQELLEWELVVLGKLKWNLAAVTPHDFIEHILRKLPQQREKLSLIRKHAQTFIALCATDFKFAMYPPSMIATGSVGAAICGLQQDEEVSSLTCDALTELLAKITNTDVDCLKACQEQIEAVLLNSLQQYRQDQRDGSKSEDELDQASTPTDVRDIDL
Summary of the method: as §1

TRKA = target: T10, TRKA (Homo sapiens, UniProt P04629)
T10 construct: either as full-length or enzymatically active fragments; purchased ProQinase GmbH (Reaction Biology)
Summary of the method: as §1

CK1alpha1 = target: T11, CK1alpha1 (Homo sapiens, UniProt P48729)
T11 construct: either as full-length or enzymatically active fragments; purchased ProQinase GmbH (Reaction Biology); host or cells: Sf9 insect cells or E. coli
Summary of the method: as §1

NEK4 = target: T12, NEK4 (Homo sapiens, UniProt P51957)
T12 construct: purchased ProQinase GmbH (Reaction Biology)
Summary of the method: as §1

MAPKAPK2 = target: T13, MAPKAPK2 (Homo sapiens, UniProt P49137)
T13 construct: either as full-length or enzymatically active fragments; purchased ProQinase GmbH (Reaction Biology); host or cells: Sf9 insect cells or E. coli
Summary of the method: as §1

MKK7 = target: T14, MKK7 (Homo sapiens, UniProt O14733)
T14 construct: either as full-length or enzymatically active fragments; purchased ProQinase GmbH (Reaction Biology); host or cells: Sf9 insect cells or E. coli (not specified per kinase)
Summary of the method: as §1

PKA = target: T15, PKA (Homo sapiens, UniProt P17612)
T15 construct: either as full-length or enzymatically active fragments; purchased ProQinase GmbH (Reaction Biology); host or cells: Sf9 insect cells or E. coli
Summary of the method: as §1

ACVR2B = target: T16, ACVR2B (Homo sapiens, UniProt Q13705)
T16 construct: either as full-length or enzymatically active fragments; purchased ProQinase GmbH (Reaction Biology)
Summary of the method: as §1

EPHA4 = target: T17, EPHA4 (Homo sapiens, UniProt P54764)
T17 construct: either as full-length or enzymatically active fragments; purchased ProQinase GmbH (Reaction Biology)
Summary of the method: as §1

AMPKalpha1 = target: T18, AMPKalpha1 (Homo sapiens, UniProt Q13131)
T18 construct: either as full-length or enzymatically active fragments; purchased ProQinase GmbH (Reaction Biology)
Summary of the method: as §1

CDK18/CycY = target: T19, CDK18/CycY (Homo sapiens, UniProt Q07002)
T19 construct: either as full-length or enzymatically active fragments; purchased ProQinase GmbH (Reaction Biology)
Summary of the method: as §1

PKCbeta1 = target: T20, PKCbeta1 (Homo sapiens, UniProt P05771)
T20 construct: either as full-length or enzymatically active fragments; purchased ProQinase GmbH (Reaction Biology)
Summary of the method: as §1

MAPKAPK3 = target: T21, MAPKAPK3 (Homo sapiens, UniProt Q16644)
T21 construct: either as full-length or enzymatically active fragments; purchased ProQinase GmbH (Reaction Biology)
Summary of the method: as §1

MTOR = target: T22, MTOR (Homo sapiens, UniProt P42345)
T22 construct: purchased ProQinase GmbH (Reaction Biology); host or cells: Sf9 insect cells or E. coli (not specified per kinase)
Summary of the method: as §1

TEC = target: T23, TEC (Homo sapiens, UniProt P42680)
T23 construct: either as full-length or enzymatically active fragments; purchased ProQinase GmbH (Reaction Biology)
T23 sequence (P42680 whole entry, the tested form may be a part): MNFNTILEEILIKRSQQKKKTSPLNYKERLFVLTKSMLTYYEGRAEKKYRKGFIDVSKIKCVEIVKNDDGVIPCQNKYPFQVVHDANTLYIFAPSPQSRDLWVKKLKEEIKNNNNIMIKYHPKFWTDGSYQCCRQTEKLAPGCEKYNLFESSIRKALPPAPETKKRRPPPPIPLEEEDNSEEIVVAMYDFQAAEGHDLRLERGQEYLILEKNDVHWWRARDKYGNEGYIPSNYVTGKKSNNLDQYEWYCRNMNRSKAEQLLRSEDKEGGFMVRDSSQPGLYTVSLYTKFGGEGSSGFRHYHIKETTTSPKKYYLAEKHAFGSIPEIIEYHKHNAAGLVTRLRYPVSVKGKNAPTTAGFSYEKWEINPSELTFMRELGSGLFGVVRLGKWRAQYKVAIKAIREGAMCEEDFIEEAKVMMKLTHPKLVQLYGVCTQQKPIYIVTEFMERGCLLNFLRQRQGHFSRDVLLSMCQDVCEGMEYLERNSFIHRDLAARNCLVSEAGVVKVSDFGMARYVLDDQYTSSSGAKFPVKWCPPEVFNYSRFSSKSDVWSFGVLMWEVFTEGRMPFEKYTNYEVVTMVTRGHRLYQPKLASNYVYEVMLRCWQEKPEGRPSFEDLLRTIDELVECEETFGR
Summary of the method: as §1

MEK1 = target: T24, MEK1 (Homo sapiens, UniProt Q02750)
T24 construct: either as full-length or enzymatically active fragments; purchased ProQinase GmbH (Reaction Biology); host or cells: Sf9 insect cells or E. coli
Summary of the method: as §1

FER = target: T25, FER (Homo sapiens, UniProt P16591)
T25 construct: either as full-length or enzymatically active fragments; purchased ProQinase GmbH (Reaction Biology); host or cells: Sf9 insect cells or E. coli
Summary of the method: as §1

CLK1 = target: T26, CLK1 (Homo sapiens, UniProt P49759)
T26 construct: either as full-length or enzymatically active fragments; purchased ProQinase GmbH (Reaction Biology)
T26 sequence (P49759 whole entry, the tested form may be a part): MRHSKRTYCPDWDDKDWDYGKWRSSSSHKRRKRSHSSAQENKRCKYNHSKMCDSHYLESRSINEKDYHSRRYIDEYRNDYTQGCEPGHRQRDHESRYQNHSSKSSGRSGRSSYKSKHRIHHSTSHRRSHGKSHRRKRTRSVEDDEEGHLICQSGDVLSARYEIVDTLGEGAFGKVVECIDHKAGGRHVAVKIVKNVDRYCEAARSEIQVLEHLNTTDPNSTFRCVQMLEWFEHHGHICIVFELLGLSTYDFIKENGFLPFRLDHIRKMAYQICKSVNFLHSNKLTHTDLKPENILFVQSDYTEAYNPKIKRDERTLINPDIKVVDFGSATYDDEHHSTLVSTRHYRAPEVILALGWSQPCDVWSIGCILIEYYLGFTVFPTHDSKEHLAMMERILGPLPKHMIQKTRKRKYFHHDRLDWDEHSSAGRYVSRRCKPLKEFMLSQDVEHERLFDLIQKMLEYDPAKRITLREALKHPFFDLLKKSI
Summary of the method: as §1

PKCgamma = target: T27, PKCgamma (Homo sapiens, UniProt P05129)
T27 construct: either as full-length or enzymatically active fragments; purchased ProQinase GmbH (Reaction Biology)
Summary of the method: as §1

RIPK2 = target: T28, RIPK2 (Homo sapiens, UniProt O43353)
T28 construct: either as full-length or enzymatically active fragments; purchased ProQinase GmbH (Reaction Biology)
Summary of the method: as §1

TRKC = target: T29, TRKC (Homo sapiens, UniProt Q16288)
T29 construct: either as full-length or enzymatically active fragments; purchased ProQinase GmbH (Reaction Biology)
Summary of the method: as §1

ACVR1B = target: T30, ACVR1B (Homo sapiens, UniProt P36896)
T30 construct: purchased ProQinase GmbH (Reaction Biology); host or cells: Sf9 insect cells or E. coli (not specified per kinase)
T30 sequence (P36896 24-505): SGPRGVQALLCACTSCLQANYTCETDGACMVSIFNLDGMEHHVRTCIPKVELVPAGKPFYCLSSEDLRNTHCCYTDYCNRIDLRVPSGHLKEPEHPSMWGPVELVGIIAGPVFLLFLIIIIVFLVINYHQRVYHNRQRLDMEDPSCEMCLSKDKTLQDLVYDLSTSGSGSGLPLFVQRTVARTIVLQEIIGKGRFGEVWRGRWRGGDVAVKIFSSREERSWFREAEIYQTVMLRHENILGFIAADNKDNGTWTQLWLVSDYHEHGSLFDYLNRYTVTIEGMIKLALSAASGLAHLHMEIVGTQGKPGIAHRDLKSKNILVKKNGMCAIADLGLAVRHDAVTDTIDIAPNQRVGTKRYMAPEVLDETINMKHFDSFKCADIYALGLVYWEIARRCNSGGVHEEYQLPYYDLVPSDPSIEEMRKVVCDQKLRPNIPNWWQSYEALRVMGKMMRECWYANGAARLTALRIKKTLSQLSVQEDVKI
Summary of the method: as §1

**Q.** Which inhibition at 1 µM (SYK) does the source give for `C=CC(=O)Nc1ccc(C(=O)N2CC[C@@H](Nc3ncc(C#N)cn3)C2)cc1` [Compound 4, (R)-N-(4-(3-((5-cyanopyrimidin-2-yl)amino)pyrrolidine-1-carbonyl)phenyl)acrylamide] here?
**A.** Its inhibition at 1 µM is 2%.

**Q.** What about the inhibition at 1 µM (NEK1) of the same compound?
**A.** Its inhibition at 1 µM is 0%.

**Q.** And the inhibition at 1 µM (CDK9/CycK)?
**A.** Its inhibition at 1 µM is 21%.

**Q.** And the inhibition at 1 µM (HIPK4)?
**A.** The inhibition at 1 µM was 11%.

**Q.** What about the inhibition at 1 µM (CDC42BPB) of the same compound?
**A.** Its inhibition at 1 µM is 7%.

**Q.** And the inhibition at 1 µM (CLK2)?
**A.** The inhibition at 1 µM was -2%.

**Q.** What about the inhibition at 1 µM (IRAK4) of the same compound?
**A.** The inhibition at 1 µM was 0%.

**Q.** What about the inhibition at 1 µM (CAMKK1) of the same compound?
**A.** The inhibition at 1 µM was 3%.

**Q.** And the inhibition at 1 µM (CDK4/CycD2)?
**A.** The inhibition at 1 µM was 0%.

**Q.** What about the inhibition at 1 µM (TRKA) of the same compound?
**A.** The inhibition at 1 µM was -7%.

**Q.** And the inhibition at 1 µM (CK1alpha1)?
**A.** Its inhibition at 1 µM is 12%.

**Q.** And the inhibition at 1 µM (NEK4)?
**A.** Its inhibition at 1 µM is -1%.

**Q.** What about the inhibition at 1 µM (MAPKAPK2) of the same compound?
**A.** Its inhibition at 1 µM is -24%.

**Q.** And the inhibition at 1 µM (MKK7)?
**A.** The inhibition at 1 µM was 11%.

**Q.** What about the inhibition at 1 µM (PKA) of the same compound?
**A.** The inhibition at 1 µM was 13%.

**Q.** And the inhibition at 1 µM (ACVR2B)?
**A.** Its inhibition at 1 µM is 6%.

**Q.** What about the inhibition at 1 µM (EPHA4) of the same compound?
**A.** The inhibition at 1 µM was 2%.

**Q.** And the inhibition at 1 µM (AMPKalpha1)?
**A.** The inhibition at 1 µM was 2%.

**Q.** And the inhibition at 1 µM (CDK18/CycY)?
**A.** The inhibition at 1 µM was 20%.

**Q.** And the inhibition at 1 µM (PKCbeta1)?
**A.** Its inhibition at 1 µM is 4%.

**Q.** What about the inhibition at 1 µM (MAPKAPK3) of the same compound?
**A.** Its inhibition at 1 µM is 8%.

**Q.** And the inhibition at 1 µM (MTOR)?
**A.** Its inhibition at 1 µM is 1%.

**Q.** What about the inhibition at 1 µM (TEC) of the same compound?
**A.** Its inhibition at 1 µM is 5%.

**Q.** And the inhibition at 1 µM (MEK1)?
**A.** Its inhibition at 1 µM is 13%.

**Q.** What about the inhibition at 1 µM (FER) of the same compound?
**A.** The inhibition at 1 µM was 15%.

**Q.** And the inhibition at 1 µM (CLK1)?
**A.** The inhibition at 1 µM was -3%.

**Q.** And the inhibition at 1 µM (PKCgamma)?
**A.** The inhibition at 1 µM was -9%.

**Q.** What about the inhibition at 1 µM (RIPK2) of the same compound?
**A.** Its inhibition at 1 µM is 5%.

**Q.** And the inhibition at 1 µM (TRKC)?
**A.** The inhibition at 1 µM was -11%.

**Q.** And the inhibition at 1 µM (ACVR1B)?
**A.** Its inhibition at 1 µM is 1%.
